Assay results published in patent publication US6010876A, “Clavanins” (The Regents of the University of California, priority 1996, dated 2000).

Legend:
L. monocytogenes EGD = test: radial diffusion assay; format: cell-based, Listeria monocytogenes; details: for potency relative to Clavanins A and B: L. monocytogenes Strain EGD, radial diffusion (FIG. 5)
Procedure: (§1) In more detail, the filtrates (≈3.5 mg of protein by BCA) were concentrated to 2 ml by vacuum centrifugation in a Speed Vac Concentrator (Savant Instruments, Hicksville, N.Y.). Gel permeation chromatography was performed on a 1.2×65 cm BioGel P-10 gel permeation column with 5% acetic acid. Preparative continuous acid-urea PAGE electrophoresis was performed as described by Harwig, S. S. L. et al., Anal Biochem (1993) 208:382. Active fractions were pooled and purified by RP-HPLC a 4.6×250 mm Vydac C18 column, using various linear gradients of acetonitrile in 0.1% trifluoroacetic acid (TFA) or […],) heptafluorobutyric acid (HFBA). Throughout this multistep procedure, fractions were lyophilized, concentrated and tested for antimicrobial activity against Listeria monocytogenes strain EGD by a radial diffusion technique described in Lehrer, R. I. et al., J Immunol Methods (1991) 137:167. In these assays, the underlay gels contained 9 mM sodium phosphate and 1 mM sodium citrate buffer, 0.30 mg/ml of trypticase soy broth powder (BBL, Cockeysville, Md.) and […] at a final pH of 6.5.
(§2) In addition to Cecropin P1 and Magainin 1, the activity of Clavanin A(K) was also tested. Clavanin A(K) is identical to Clavanin A except that all of the histidine residues are replaced by lysine. […] The data are provided as minimal bacteriocidal concentrations expressed in μg/ml which are the X-intercepts of radial diffusion assays performed at pH 6.5 in an underlay that contained 10 mM buffer ([…]), 1% agarose and 0.3 mg trypticase soy powder/ml.
(§3) The effect of pH on antimicrobial activity against several organisms was tested in a pH range wherein histidine becomes comparably charged to lysine. FIGS. 6-8 show the results for native or synthetic Clavanin A and synthetic Clavanin A(K) using defensin NP-2 as a control, with respect to L. monocytogenes, E. coli, and C. albicans respectively. The radial diffusion assays were conducted as described in Examples 1 and 3 above.

E. coli ML-35p = test: radial diffusion assay; format: cell-based; details: for potency relative to Clavanins A and B: E. coli ML-35P, radial diffusion (FIG. 5)
Procedure: as §1, §2, §3

E. coli BAS 894 = test: radial diffusion assay, minimal bactericidal concentration; format: cell-based; details: X-intercept of radial diffusion assay, pH 6.5
Procedure: as §1, §2

E. coli mcr 106 = test: as above; format: cell-based; details: X-intercept of radial diffusion assay, pH 6.5
Procedure: as §1, §2

E. faecalis CDC 21 (VR) = test: as above; format: cell-based; details: X-intercept of radial diffusion assay, pH 6.5
Procedure: as §1, §2

E. faecium 94.132 (VR) = test: as above; format: cell-based; details: X-intercept of radial diffusion assay, pH 6.5
Procedure: as §1, §2

E. faecium = test: as above; format: cell-based; details: E. faecium (strain not given); X-intercept of radial diffusion assay, pH 6.5
Procedure: as §1, §2

K. pneumoniae 2270 = test: as above; format: cell-based; details: X-intercept of radial diffusion assay, pH 6.5
Procedure: as §1, §2

MRSA 28841 = test: as above; format: cell-based; details: X-intercept of radial diffusion assay, pH 6.5
Procedure: as §1, §2

MRSA 30371 = test: as above; format: cell-based; details: X-intercept of radial diffusion assay, pH 6.5
Procedure: as §1, §2

P. aeruginosa MR 2133 = test: as above; format: cell-based; details: X-intercept of radial diffusion assay, pH 6.5
Procedure: as §1, §2

P. aeruginosa MR 3007 = test: as above; format: cell-based; details: X-intercept of radial diffusion assay, pH 6.5
Procedure: as §1, §2

P. aeruginosa SBI-N = test: as above; format: cell-based; details: X-intercept of radial diffusion assay, pH 6.5
Procedure: as §1, §2

S. aureus 930918-3 = test: as above; format: cell-based; details: X-intercept of radial diffusion assay, pH 6.5
Procedure: as §1, §2

S. typhimurium 14028s = test: as above; format: cell-based; details: X-intercept of radial diffusion assay, pH 6.5
Procedure: as §1, §2

S. typhimurium 7953s = test: as above; format: cell-based; details: X-intercept of radial diffusion assay, pH 6.5
Procedure: as §1, §2

With “VFHLL GKIIH HVGNF VY'GFS HVF* [Clavanin C]” the “potency relative to Clavanins A and B” value (L. monocytogenes EGD) was 3-5 fold and the “potency relative to Clavanins A and B” value (E. coli ML-35p) was 3-5 fold.

In the case of “AFKLL GRIIH HVGNF VY'GFS HVF* [Clavanin D]”, the “potency relative to Clavanins A and B” value (L. monocytogenes EGD) is reported as 3-5 fold and the “potency relative to Clavanins A and B” value (E. coli ML-35p) is reported as 3-5 fold.

“Cecropin P1: known antimicrobial peptide used for comparison (SWLSKTAKKLENSAKKRISEGIAIAIQGGPR; Cecropin-P1; UniProt P14661 14-44, looked up)” was tested, and the minimal bacteriocidal concentration (E. coli BAS 894) was 0.41 µg/mL, the minimal bacteriocidal concentration (E. coli mcr 106) was 0.54 µg/mL and the minimal bacteriocidal concentration (E. faecalis CDC 21 (VR)) was > 200 µg/mL. It also gave a minimal bacteriocidal concentration (E. faecium 94.132 (VR)) of 7.5 µg/mL, a minimal bacteriocidal concentration (E. faecium) of 6.5 µg/mL and a minimal bacteriocidal concentration (K. pneumoniae 2270) of 0.70 µg/mL. The minimal bacteriocidal concentration (MRSA 28841) was > 200 µg/mL, the minimal bacteriocidal concentration (MRSA 30371) was > 200 µg/mL and the minimal bacteriocidal concentration (P. aeruginosa MR 2133) was 0.51 µg/mL. For the same substance, the minimal bacteriocidal concentration (P. aeruginosa MR 3007) was 0.71 µg/mL, the minimal bacteriocidal concentration (P. aeruginosa SBI-N) was 0.44 µg/mL and the minimal bacteriocidal concentration (S. aureus 930918-3) was > 200 µg/mL. It also gave a minimal bacteriocidal concentration (S. typhimurium 14028s) of 0.72 µg/mL, a minimal bacteriocidal concentration (S. typhimurium 7953s) of 0.43 µg/mL and a minimal bacteriocidal concentration (L. monocytogenes EGD; L. monocytogenes EGD, X-intercept of radial diffusion assay, pH 6.5) of 6.0 µg/mL. It also gave a minimal bacteriocidal concentration (E. coli ML-35p; E. coli ML-35p, X-intercept of radial diffusion assay, pH 6.5) of 0.64 µg/mL.
